Reference: US9512120B2, “Microbicidally active imidazopyridine derivatives” (Syngenta Participations AG, priority 2013, dated 2016)

Assays:
[1] = system: Thanatephorus cucumeris (Rhizoctonia solani); experiment: Thanatephorus cucumeris (Rhizoctonia solani) / liquid culture (foot rot, damping-off); format: cell-based; conditions: PDB, 24° C., 3-4 days after application, read-out: control of Thanatephorus cucumeris (inhibition of growth, photometric)
Outline: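 At 200 ppm, compounds in DMSO were combined with fresh liquid-culture mycelia in PDB and kept at 24° C; photometric measurement of growth inhibition after 3-4 days.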

[2] = system: Phaeosphaeria nodorum (Septoria nodorum); experiment: Phaeosphaeria nodorum (Septoria nodorum) / wheat / leaf disc preventative (glume blotch); format: in vivo; conditions: Parastagonospora nodorum, foliar, wheat leaf segments cv Kanzler, inoculated 2 days after application, assessed 5-7 days after application, read-out: control of Phaeosphaeria nodorum (percent disease control compared to untreated)
Outline: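 Wheat leaf segments (cv Kanzler) on agar sprayed with compound at 200 ppm, inoculated with spores 2 days later. Incubated at 20° C., 75% relative humidity, 12/12 h light/dark; percent disease control versus untreated scored 5-7 days after application.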

[3] = system: Puccinia recondita f. sp. Tritici; experiment: Puccinia recondita f. sp. tritici / wheat / leaf disc preventative (brown rust); format: in vivo; conditions: foliar, wheat leaf segments cv Kanzler, inoculated 1 day after application, assessed 7-9 days after application, read-out: control of Puccinia recondita f. sp. Tritici (percent disease control compared to untreated)
Outline: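 Preventative test: percent disease control relative to untreated leaf segments was assessed 7-9 days post-application. Wheat (cv Kanzler) leaf discs were treated at 200 ppm and spore-inoculated 1 day afterwards. Discs were held at 19° C and 75% relative humidity under a 12/12 h light cycle.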

[4] = system: Botryotinia fuckeliana (Botrytis cinerea); experiment: Botryotinia fuckeliana (Botrytis cinerea) / liquid culture (gray mould); format: cell-based; conditions: Vogels broth, 24° C., 3-4 days after application, read-out: control of Botryotinia fuckeliana (inhibition of growth, photometric)
Outline: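 Test compound was applied at 200 ppm in DMSO, then Vogels nutrient broth containing cryo-stored B. cinerea conidia was added. Photometric growth-inhibition reading followed after 3-4 days at 24 °C.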

[5] = system: Blumeria graminis f. Sp. Tritici (Erysiphe graminis f. Sp. Tritici); experiment: Blumeria graminis f. sp. tritici / wheat / leaf disc preventative (powdery mildew on wheat); format: in vivo; conditions: foliar, wheat leaf segments cv. Kanzler, inoculated 1 day after application, assessed 6-8 days after application, read-out: control of Blumeria graminis (percent disease control compared to untreated)
Outline: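 Wheat leaf segments (cv. Kanzler) on agar sprayed with formulated compound at 200 ppm, inoculated with powdery mildew 1 day later. Held at 20 °C, 60% RH, 24 h dark then 12 h/12 h light; percent disease control versus untreated scored 6-8 days after application.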

[6] = system: Gaeumannomyces graminis; experiment: Gaeumannomyces graminis / liquid culture (take-all of cereals); format: cell-based; conditions: PDB, 24° C., 4-5 days after application, read-out: control of Gaeumannomyces graminis (inhibition of growth, photometric)
Outline: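 Growth inhibition, measured by photometry 4-5 days post-application at 24 °C, of fungal mycelial fragments in PDB broth. Test compound applied as DMSO solution at 200 ppm.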

[7] = system: Mycosphaerella graminicola (Septoria tritici); experiment: Mycosphaerella graminicola (Septoria tritici) / liquid culture (Septoria blotch); format: cell-based; conditions: Zymoseptoria tritici, PDB, 24° C., 4-5 days after application, read-out: control of Mycosphaerella graminicola (inhibition of growth, photometric)
Outline: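 Growth inhibition was read photometrically after 4–5 days at 24 °C. The test compound was applied at 200 ppm from DMSO solution, then PDB broth seeded with conidia taken straight from cryogenic storage was added.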

[8] = system: Pyrenophora teres; experiment: Pyrenophora teres / barley / leaf disc preventative (net blotch); format: in vivo; conditions: foliar, barley leaf segments cv Hasso, inoculated two days after application, assessed 5-7 days after application, read-out: control of Pyrenophora teres (disease control compared to untreated)
Outline: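 Preventative leaf-disc test: 200 ppm spray, then spore inoculation after two days on barley cv Hasso segments. Incubation 20 °C, 65% relative humidity, 12 h light/12 h dark; efficacy rated against untreated checks at 5-7 days post-application.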

CCCn1c(-n2ncnc2N)nc2cnccc21 [Compound 13, 2-(1-propylimidazo[4,5-c]pyridin-2-yl)-1,2,4-triazol-3-amine]
≥ 80%: inhibition at 20 ppm [1] | pest or weed control at 200 ppm [2] | pest or weed control at 200 ppm [3] | inhibition at 20 ppm [4] | pest or weed control at 200 ppm [5] | inhibition at 20 ppm [6] | inhibition at 20 ppm [7] | pest or weed control at 200 ppm [8]

CCc1cncc2nc(-n3ncnc3N)n(CC)c12 [Compound 23, 2-(1,7-diethylimidazo[4,5-c]pyridin-2-yl)-1,2,4-triazol-3-amine]
≥ 80%: inhibition at 20 ppm [1] | pest or weed control at 200 ppm [2] | pest or weed control at 200 ppm [3] | inhibition at 20 ppm [4] | pest or weed control at 200 ppm [5] | inhibition at 20 ppm [6] | inhibition at 20 ppm [7] | pest or weed control at 200 ppm [8]

CC=Cc1cncc2nc(-n3ncnc3N)n(CC)c12 [Compound 67, 2-(1-ethyl-7-prop-1-enylimidazo[4,5-c]pyridin-2-yl)-1,2,4-triazol-3-amine]
≥ 80%: inhibition at 20 ppm [1] | pest or weed control at 200 ppm [2] | pest or weed control at 200 ppm [3] | inhibition at 20 ppm [4] | pest or weed control at 200 ppm [5] | inhibition at 20 ppm [6] | inhibition at 20 ppm [7] | pest or weed control at 200 ppm [8]

CCn1c(-n2ncnc2N)nc2cncc(C(C)=O)c21 [Compound 75, 1-[2-(5-amino-1,2,4-triazol-1-yl)-1-ethylimidazo[4,5-c]pyridin-7-yl]ethanone]
≥ 80%: inhibition at 20 ppm [1] | pest or weed control at 200 ppm [2] | pest or weed control at 200 ppm [3] | inhibition at 20 ppm [4] | pest or weed control at 200 ppm [5] | inhibition at 20 ppm [6] | inhibition at 20 ppm [7] | pest or weed control at 200 ppm [8]

CCn1c(-n2ncnc2N)nc2cncc(-c3ccc(F)c(F)c3F)c21 [Compound 86, 2-[1-ethyl-7-(2,3,4-trifluorophenyl)imidazo[4,5-c]pyridin-2-yl]-1,2,4-triazol-3-amine]
≥ 80%: inhibition at 20 ppm [1] | pest or weed control at 200 ppm [2] | pest or weed control at 200 ppm [3] | inhibition at 20 ppm [4] | pest or weed control at 200 ppm [5] | inhibition at 20 ppm [6] | inhibition at 20 ppm [7] | pest or weed control at 200 ppm [8]

CCn1c(-n2ncnc2N)nc2cncc(-c3cccnc3F)c21 [Compound 89, 2-[1-ethyl-7-(2-fluoropyridin-3-yl)imidazo[4,5-c]pyridin-2-yl]-1,2,4-triazol-3-amine]
≥ 80%: inhibition at 20 ppm [1] | pest or weed control at 200 ppm [2] | pest or weed control at 200 ppm [3] | inhibition at 20 ppm [4] | pest or weed control at 200 ppm [5] | inhibition at 20 ppm [6] | inhibition at 20 ppm [7] | pest or weed control at 200 ppm [8]

CCn1c(-n2ncnc2N)nc2cncc(-c3cccc(Cl)c3F)c21 [Compound 90, 2-[7-(3-chloro-2-fluorophenyl)-1-ethylimidazo[4,5-c]pyridin-2-yl]-1,2,4-triazol-3-amine]
≥ 80%: inhibition at 20 ppm [1] | pest or weed control at 200 ppm [2] | pest or weed control at 200 ppm [3] | inhibition at 20 ppm [4] | pest or weed control at 200 ppm [5] | inhibition at 20 ppm [6] | inhibition at 20 ppm [7] | pest or weed control at 200 ppm [8]

CCn1c(-n2ncnc2N)nc2cncc(-c3cccc(OC)c3F)c21 [Compound 93, 2-[1-ethyl-7-(2-fluoro-3-methoxyphenyl)imidazo[4,5-c]pyridin-2-yl]-1,2,4-triazol-3-amine]
≥ 80%: inhibition at 20 ppm [1] | pest or weed control at 200 ppm [2] | pest or weed control at 200 ppm [3] | inhibition at 20 ppm [4] | pest or weed control at 200 ppm [5] | inhibition at 20 ppm [6] | inhibition at 20 ppm [7] | pest or weed control at 200 ppm [8]

CCn1c(-n2ncnc2N)nc2cncc(-c3cccc(F)c3F)c21 [Compound 102, 2-[7-(2,3-difluorophenyl)-1-ethylimidazo[4,5-c]pyridin-2-yl]-1,2,4-triazol-3-amine]
≥ 80%: inhibition at 20 ppm [1] | pest or weed control at 200 ppm [2] | pest or weed control at 200 ppm [3] | inhibition at 20 ppm [4] | pest or weed control at 200 ppm [5] | inhibition at 20 ppm [6] | inhibition at 20 ppm [7] | pest or weed control at 200 ppm [8]

CCn1c(-n2ncnc2N)nc2cncc(/C(C)=N\OC/C=C(\C)Cl)c21 [Compound 153, 2-[7-[(Z)-N-[(E)-3-chlorobut-2-enoxy]-C-methyl-carbonimidoyl]-1-ethyl-imidazo[4,5-c]pyridin-2-yl]-1,2,4-triazol-3-amine]
≥ 80%: inhibition at 20 ppm [1] | pest or weed control at 200 ppm [2] | pest or weed control at 200 ppm [3] | inhibition at 20 ppm [4] | pest or weed control at 200 ppm [5] | inhibition at 20 ppm [6] | inhibition at 20 ppm [7] | pest or weed control at 200 ppm [8]

CCCn1c(-n2ncnc2N)nc2cncc(C)c21 [Compound 173, 2-(7-methyl-1-propyl-imidazo[4,5-c]pyridin-2-yl)-1,2,4-triazol-3-amine]
≥ 80%: inhibition at 20 ppm [1] | pest or weed control at 200 ppm [2] | pest or weed control at 200 ppm [3] | inhibition at 20 ppm [4] | pest or weed control at 200 ppm [5] | inhibition at 20 ppm [6] | inhibition at 20 ppm [7] | pest or weed control at 200 ppm [8]

CCCn1c(-n2ncnc2N)nc2cncc(CC)c21 [Compound 174, 2-(7-ethyl-1-propyl-imidazo[4,5-c]pyridin-2-yl)-1,2,4-triazol-3-amine]
≥ 80%: inhibition at 20 ppm [1] | pest or weed control at 200 ppm [2] | pest or weed control at 200 ppm [3] | inhibition at 20 ppm [4] | pest or weed control at 200 ppm [5] | inhibition at 20 ppm [6] | inhibition at 20 ppm [7] | pest or weed control at 200 ppm [8]
